Data on four compounds can be found in US20250275975A1, “Methods of Treating Neuropathies” (Athira Pharma, Inc., priority 2023, published 2025).

The test system of assay [1] is STZ DNP rats. Put plainly: Mechanical allodynia rescue assay (Von Frey paw withdrawal threshold), Example B1. To be noted: for Efficacy: rescue of mechanical allodynia behavior as measured by paw withdrawal threshold: study day 28 after 14 days of treatment, p vs disease control; for rescue of the mechanical allodynia behavior as measured by paw withdrawal threshold: STZ DNP rats. Details: key to Efficacy: rescue of mechanical allodynia behavior as measured by paw withdrawal threshold: NS indicates treatment did not significantly affect paw withdrawal threshold vs disease control.; + indicates p < 0.05 vs disease control.; ++ indicates p < 0.01 vs disease control.; +++ indicates p < 0.001 vs disease control. It is filed as in vivo, Sprague Dawley rats. From the text:
Hyperglycemic rats consistently develop neuropathic pain-associated behaviors including mechanical allodynia. Allodynia refers to a type of neuropathic pain characterized by increased sensitivity to stimuli that are not normally painful. Mechanical allodynia is quantified in rats by determination of the force required to induce a withdrawal of the paw and is negatively associated with allodynia such that, the lower the force required to induce paw withdrawal, the greater the pain behavior.
(§1) A series of studies were performed to determine the ability of HGF/MET positive modulator compounds to reduce the mechanical allodynia pain behaviors in hyperglycemic rats. A single dose of STZ (55 mg/kg via intravenous (IV)) was administered to induce a Type I diabetic hyperglycemia in male Sprague Dawley rats. Hyperglycemia was confirmed 4 days after STZ administration, with blood glucose levels above 200 mg/dL considered successful model induction. 14 days after disease induction, test compound treatment was initiated and continued as daily compound administration over the remaining course of the study. Route and dose for each compound were determined by pharmacokinetic and distribution modelling. Control groups included animals with no diabetic induction (Sham control), animals with diabetes but treated only with formulation vehicle (DNP (diabetic peripheral neuropathy) control), and disease animals treated with pregabalin (30 mg/kg via PO), which is known to reduce neuropathic pain behaviors.
(§2) Changes to neuropathic pain behaviors were assessed after 14 days of compound treatment on study day 28. Mechanical allodynia was tested by placing each animal on an elevated wire grid and stimulating the plantar surface of the right rear paw with a series of filaments corresponding to increasing orders of force, reaching a maximum force of 60 grams (Aesthesio manual Von Frey filaments). The force of the filament that causes paw withdrawal was considered the paw withdrawal threshold in grams. Pain sensitivity in response to thermal hyperalgesia was determined by using hot plate method and represented as paw withdrawal latency (PWL). Rats were placed on the hot plate (52.5° C.), and the time taken to show the nocifensive behavior (either licking or jumping) of any of their paws was recorded. Statistical comparison of treatment groups to DNP control groups was performed by one-way ANOVA followed by Dunnett's multiple comparisons test.

Assay [2] concerns STZ DNP rats. Description: Thermal hyperalgesia rescue assay (hot plate paw withdrawal latency), Example B1. It is filed as in vivo, Sprague Dawley rats. Details: key to Efficacy: rescue of thermal hyperalgesia behavior as measured by paw withdrawal latency: NS indicates treatment did not significantly affect paw withdrawal latency vs disease control.; + indicates p < 0.05 vs disease control.; ++ indicates p < 0.01 vs disease control.; +++ indicates p < 0.001 vs disease control. The note with it: for Efficacy: rescue of thermal hyperalgesia behavior as measured by paw withdrawal latency: study day 28 after 14 days of treatment, hot plate 52.5° C., p vs disease control; for rescue of thermal allodynia behavior as measured by paw withdrawal latency: STZ DNP rats. As for the experimental part:
as §1, §2

Assay [3] relates to neuron-Schwann cell co-cultures injured with cisplatin. Description: Sensory neurite extension and myelination in cisplatin-injured primary dorsal root ganglia cultures. It is filed as cell-based, rat. Details: key to Significant promotion of Neurite Network Extension of Sensory Neurons / Significant promotion of Myelination of Sensory neurons by Schwann Cells: “NS” indicates the treatment did not have a significant effect; “+” indicates the treatment had a significant effect. To be noted: for Significant promotion of Myelination of Sensory neurons by Schwann Cells / Significant promotion of Neurite Network Extension of Sensory Neurons: +Cisplatin injury (10 μg/ml, 24 hours), vs Cisplatin-treated group. As for the experimental part:
(§3) To assess the effects of test compound treatment on these structures central to neuropathic pathology, peripheral sensory neurons were modeled using dissociated primary cultures of neurons and Schwann cells collected from fetal rats. Fetal rats were collected from pregnant females after 15 days of gestation, and the dorsal root ganglion was dissociated via trypsin digestion and mechanical disruption. The resulting cells were plated and allowed to grow for 7 days. On day 7 in culture, ascorbic acid at a concentration of 50 μM was added to the culture to promote myelination of sensory neurons by Schwann cells.
To model the effects of neuropathic injury in sensory neurons and associated Schwann cells, cultures were injured with the chemotherapy drug cisplatin. These cultures were prepared identically to those described above. In this system, Compound 5a, HGF, and β-estradiol treatments began on culture day 19. Also on culture day 19, cisplatin (10 μg/ml) was added to the cultures for 24 hours. On culture day 20, cisplatin was removed from the media while test compound treatments were replaced for 24 hours. On day 21 in culture, cells were fixed and processed for immunodetection as described above.
(§4) 30 fluorescent images were captured for each treatment group and images were quantified by automated image analysis. Neurite network extension was quantified as the total length of MAP2-positive neurites per cell measured in μm. Myelination by Schwann cells was quantified by the area of overlap between MAP2-positive neurites and MAG-positive myelin wrapping measured in μm^2. Statistical analysis was performed as a one-way ANOVA with Fisher's LSD post-test against either vehicle- or Cisplatin-treated groups respectively.

Assay [4] relates to neuron-Schwann cell co-cultures. Put plainly: Sensory neurite extension and myelination in healthy primary dorsal root ganglia cultures. It is filed as cell-based, rat. On the set-up: key to Significant promotion of Neurite Network Extension of Sensory Neurons / Significant promotion of Myelination of Sensory neurons by Schwann Cells: “NS” indicates the treatment did not have a significant effect; “+” indicates the treatment had a significant effect. The note with it: for Significant promotion of Myelination of Sensory neurons by Schwann Cells / Significant promotion of Neurite Network Extension of Sensory Neurons: Healthy cultures, vs vehicle. The method, then: as §3
To model the effects of Compound 5a in the normal peripheral nervous system, neuron-Schwann cell co-cultures were treated with Compound 5a in combination with low doses of recombinant hepatocyte growth factor (HGF). On day 8 in culture, experimental treatments were added to culture media. These treatments included HGF with or without Compound 5a. Some cultures were treated with the steroid hormone B-estradiol to serve as a positive control. Treatments were applied every other day, and on day 21 in culture the cultures were fixed with ethanol and processed for immunodetection of both microtubule-associate protein 2 (MAP2) to reveal neurons and their neurites as well as myelin-associated glycoprotein (MAG) to reveal Schwann cells and the extent of their myelination of cultured neurites. Cells were counterstained with Hoechst DNA dye to identify individual cells.
as §4

The mark [5] stands for this setting: injured cultures, positive control β-estradiol.
[6] abbreviates: healthy cultures, positive control β-estradiol.
Where [7] appears, read: injured cultures, HGF alone at either 0.05 or 5 ng/ml.
[8] abbreviates: healthy cultures, HGF alone at either 0.05 or 5 ng/ml.

With `CCC(C)CN1CC2N(C(=O)c3ccc(OC(F)F)cc3)CCC(=O)N2[C@@H](C)C1=O` (stereo partly shown) [Compound 2a], the “Efficacy: rescue of mechanical allodynia behavior as measured by paw withdrawal threshold” value in assay [1] (0.00625 mg/kg PO daily) is reported as “+ (+ indicates p < 0.05 vs disease control.)”; in assay [1] (0.025 mg/kg PO daily), “++ (++ indicates p < 0.01 vs disease control.)”; in assay [1] (0.1 mg/kg PO daily), “+++ (+++ indicates p < 0.001 vs disease control.)”; in assay [1] (1 mg/kg PO daily), “+++ (+++ indicates p < 0.001 vs disease control.)”. Besides, the “rescue of the mechanical allodynia behavior as measured by paw withdrawal threshold” value in assay [1] is on record as “significant rescue”. Also, the “Efficacy: rescue of thermal hyperalgesia behavior as measured by paw withdrawal latency” value in assay [2] (0.00625 mg/kg PO daily) is listed as “+ (+ indicates p < 0.05 vs disease control.)”; in assay [2] (0.025 mg/kg PO daily), “NS”; in assay [2] (0.1 mg/kg PO daily), “++ (++ indicates p < 0.01 vs disease control.)”; in assay [2] (1 mg/kg PO daily) it was “NS”. In addition, the “rescue of thermal allodynia behavior as measured by paw withdrawal latency” value in assay [2] is listed as “significant rescue”.
As to `CCC(C)CN1CC2N(Cc3ccc(OC(F)F)cc3)CCC(=O)N2[C@@H](C)C1=O` (stereo partly shown) [Compound 6a], the “Efficacy: rescue of mechanical allodynia behavior as measured by paw withdrawal threshold” value in assay [1] (0.156 mg/kg PO daily) is recorded as “NS”; in assay [1] (0.625 mg/kg PO daily), “+ (+ indicates p < 0.05 vs disease control.)”; in assay [1] (2.5 mg/kg PO daily) it was “+++ (+++ indicates p < 0.001 vs disease control.)”; in assay [1] (10 mg/kg PO daily) it was “+++ (+++ indicates p < 0.001 vs disease control.)”. In assay [1], the “rescue of the mechanical allodynia behavior as measured by paw withdrawal threshold” value is reported as “significant rescue”. Further, the “Efficacy: rescue of thermal hyperalgesia behavior as measured by paw withdrawal latency” value in assay [2] (0.156 mg/kg PO daily) was “NS”; in assay [2] (0.625 mg/kg PO daily), “NS”; in assay [2] (2.5 mg/kg PO daily), “++ (++ indicates p < 0.01 vs disease control.)”; in assay [2] (10 mg/kg PO daily) it was “+++ (+++ indicates p < 0.001 vs disease control.)”. Also, the “rescue of thermal allodynia behavior as measured by paw withdrawal latency” value in assay [2] is given as “significant rescue”.
Turning to `C[C@]12CC[C@@H]3c4ccc(O)cc4CC[C@H]3[C@@H]1CC[C@@H]2O` [β-estradiol, reference compound], in assay [3] (β-estradiol 150 nM), the “Significant promotion of Myelination of Sensory neurons by Schwann Cells” value (“Significant promotion … by Schwann Cells” below) is given as “+” and the “Significant promotion of Neurite Network Extension of Sensory Neurons” value is given as “+”. In addition, in assay [3] (setting [5]), the “myelination of sensory neurons by Schwann cells” value is reported as “significantly promoting” and the neurite network extension result is on record as “significantly promoting”. In assay [4] (β-estradiol 150 nM), the “Significant promotion … by Schwann Cells” value was “+” and the “Significant promotion of Neurite Network Extension of Sensory Neurons” value was “+”. For the same compound, in assay [4] (setting [6]), the “myelination of sensory neurons by Schwann cells” value is given as “significantly promoting” and the neurite network extension result is “significantly promoting”.
Regarding “HGF: recombinant hepatocyte growth factor (HGF), added at low doses with or without Compound 5a”, the “Significant promotion … by Schwann Cells” value in assay [3] (HGF 0.05 ng/ml alone), in assay [3] (HGF 5 ng/ml alone), in assay [4] (HGF 0.05 ng/ml alone) and in assay [4] (HGF 5 ng/ml alone) was “NS” in each case. For the same compound, the “Significant promotion of Neurite Network Extension of Sensory Neurons” value in assay [3] (HGF 0.05 ng/ml alone), in assay [3] (HGF 5 ng/ml alone), in assay [4] (HGF 0.05 ng/ml alone) and in assay [4] (HGF 5 ng/ml alone) was “NS” each time. In addition, the myelination entry in assay [3] (setting [7]) and in assay [4] (setting [8]) was “did not significantly promote” in each case. For the same compound, the neurite network extension entry in assay [3] (setting [7]) and in assay [4] (setting [8]) was “did not significantly promote” throughout.
